Assays:
surface PR3 = experiment: Fluorescence microscopy of surface PR3 on neutrophils differentiated in presence of INS1007; type: cell-based, human; conditions: differentiation in the presence of 10 μM; neutrophils derived from bone marrow and umbilical cord stem cells (both cell types)
Protocol: To evaluate the pharmacological effects of INS1007 on surface PR3 expression, total PR3 expression, and NSP activity, stem cells were differentiated to neutrophils in the presence of INS1007 at increasing concentrations. Primary bone marrow (BM) or umbilical cord blood (UC) derived CD34^+ neutrophil progenitor cells (AllCells; Alameda, Calif.) were cultured for 7 days in STEMSPAN™ SFEM media (Stemcell Technologies; Tukwila, WA) supplemented with recombinant human Stem Cell Factor (Peprotech; Rocky Hill, NJ) and recombinant human IL-3 (Peprotech). The cells were differentiated in culture for another 7 days in STEMSPAN™ SFEM media (Stemcell Technologies) with recombinant human Granulocyte Colony Stimulating Factor (Peprotech), plus increasing concentrations of INS1007 (0-10 μM). […]
In a separate experiment, neutrophils were harvested, stained for 30 min. with either a mouse anti-PR3 monoclonal antibody (Abcam; Cambridge, Mass.) or a mouse monoclonal IgG isotype control (Abcam), followed by a Cy5-conjugated goat anti-mouse IgG secondary antibody (Abcam), fixed in 4% formaldehyde, and mounted to glass slides with PROLONGTM Diamond Antifade Mountant with DAPI (Thermo Fisher; Waltham, Mass.). Samples were imaged with an Axio fluorescence microscope (Zeiss; Oberkochen, Germany) using constant settings while imaging samples from different treatment conditions.

total proteinase 3 (PR3) = experiment: Flow cytometry of total (surface and intracellular) PR3 expression in differentiated neutrophils; type: cell-based, human
Protocol: To evaluate the pharmacological effects of INS1007 on surface PR3 expression, total PR3 expression, and NSP activity, stem cells were differentiated to neutrophils in the presence of INS1007 at increasing concentrations. Primary bone marrow (BM) or umbilical cord blood (UC) derived CD34^+ neutrophil progenitor cells (AllCells; Alameda, Calif.) were cultured for 7 days in STEMSPAN™ SFEM media (Stemcell Technologies; Tukwila, WA) supplemented with recombinant human Stem Cell Factor (Peprotech; Rocky Hill, NJ) and recombinant human IL-3 (Peprotech). The cells were differentiated in culture for another 7 days in STEMSPAN™ SFEM media (Stemcell Technologies) with recombinant human Granulocyte Colony Stimulating Factor (Peprotech), plus increasing concentrations of INS1007 (0-10 μM). At the end of the differentiation/treatment period, cells were harvested for analysis.
Differentiated neutrophils were harvested for flow cytometry to quantify PR3 expression on the surface of neutrophils (FIGS. 1 and 2) and neutrophil total PR3 expression (FIG. 3).

In the case of `Cn1c(=O)oc2ccc(-c3ccc(C[C@@H](C#N)NC(=O)[C@@H]4CNCCCO4)cc3)cc21` [INS1007, (2S)-N-{(1S)-1-cyano-2-[4-(3-methyl-2-oxo-2,3-dihydro-1,3-benzoxazol-5-yl)phenyl]ethyl}-1,4-oxazepane-2-carboxamide], the “surface PR3 (fluorescence microscopy)” value (surface PR3) is reported as “markedly reduced”, the “total PR3 levels” value (total proteinase 3 (PR3); bone marrow stem cell-derived neutrophils, not completely concentration-dependent) is reported as “significantly reduced” and the “percentage of cells with positive total PR3 expression” value (total proteinase 3 (PR3); neutrophils derived from either umbilical cord blood or bone marrow stem cells) is reported as “did not reduce”. The “total PR3 levels” value (total proteinase 3 (PR3); umbilical cord blood stem cell-derived neutrophils) was “did not reach statistically significant reduction”.
